Laboratory results reported in patent US12285407B2, “Bis-indolylmethane derivatives and uses thereof” (The University of The West Indies, priority 2018, dated 2025).
Like-named read-outs stand apart in the source and are kept apart here.

Legend:
[1] = system: Enterococcus faecalis; test: Adjuvant broth microdilution (antibiotic MIC with SP-BIM at 50 μg/mL); assay type: cell-based; details: antibiotic alone
[2] = system: Streptococcus pneumoniae; test: as above; assay type: cell-based; details: Streptococcus pneumoniae; Streptococcus pneumonia; antibiotic alone; Table 5; read-out: MIC of antibiotic, No compound
[3] = system: clinical antibiotic resistant isolates of MRSA; test: Checkerboard resistance breaking by SP-BIM 13; assay type: cell-based, Staphylococcus aureus; details: for Rescue concentration of SP-BIM 13: SP-BIM 13 with the labelled antibiotic; for MIC of antibiotic only: antibiotic alone; for FIC antibiotic: combination with SP-BIM 13; for MIC of antibiotic in combination: with SP-BIM 13 at rescue concentration
[4] = system: Staphylococcus aureus; test: Checkerboard synergy (FICI) of antibiotics with SP-BIM; assay type: cell-based; details: Staphylococcus aureus, Staphylococcus aureus; for MIC: 24 h, antibiotic alone, read-out: MIC antibiotic only
[5] = system: Klebsiella pneumoniae; test: as above; assay type: cell-based; details: for MIC: 24 h, antibiotic alone, read-out: MIC antibiotic only
[6] = system: Pseudomonas aeruginosa; test: Adjuvant broth microdilution (antibiotic MIC with SP-BIM at 50 μg/mL); assay type: cell-based; details: antibiotic alone
[7] = system: Candida albicans; test: Checkerboard synergy (FICI) of antibiotics with SP-BIM; design: MIC SP-BIM 13 only / MIC in combination: Antibiotic / MIC antibiotic only: unit not given beside the values
[8] = system: clinical strains of MRSA; test: Kirby Bauer disc diffusion susceptibility profile; assay type: cell-based, Staphylococcus aureus; details: for Zone of clearance: 35° C., 24 hours, average n=3; for Interpretive standard (resistant/susceptible): zones vs EUCAST breakpoints (Table 30)
[9] = system: Escherichia coli; test: Checkerboard synergy (FICI) of antibiotics with SP-BIM; design: MIC SP-BIM 13 only / MIC in combination: Antibiotic: unit not given beside the values; details: for MIC: 24 h
[10] = system: Bacillus cereus; test: as above; assay type: cell-based; details: for MIC: 24 h, antibiotic alone, read-out: MIC antibiotic only
[11] = system: Streptococcus pneumoniae; test: as above; assay type: cell-based; details: Streptococcus pneumonia (title: Streptococcus pyogenes)
[12] = system: Escherichia coli; test: microbe, parasite or virus in culture; assay type: cell-based; details: antibiotic alone, Table 6, read-out: MIC of antibiotic, No compound
[13] = system: Enterobacter cloacae; test: Adjuvant broth microdilution (antibiotic MIC with SP-BIM at 50 μg/mL); assay type: cell-based; details: antibiotic alone
[14] = system: MRSA; test: as above; assay type: cell-based, Staphylococcus aureus; details: antibiotic alone
[15] = MRSA strain 5872, antibiotic + SP-BIM 13
[16] = SP-BIM 9 in combination with the labelled antibiotic
[17] = SP-BIM 13 in combination with the labelled antibiotic
[18] = antibiotic in combination with SP-BIM 9
[19] = antibiotic in combination with SP-BIM 13
[20] = MIC of the antibiotic in combination with SP-BIM 13

## CC[C@H]1OC(=O)[C@H](C)[C@@H](O[C@H]2C[C@@](C)(OC)[C@@H](O)[C@H](C)O2)[C@H](C)[C@@H](O[C@@H]2O[C@H](C)C[C@H](N(C)C)[C@H]2O)[C@](C)(O)C[C@@H](C)C(=O)[C@H](C)[C@@H](O)[C@]1(C)O [Erythromycin, erythromycin]
[1]
  MIC of antibiotic, No Compound: 250 µg/mL
[2]
  MIC: 4 µg/mL
[3]; MRSA strain 5872
  Rescue concentration of SP-BIM 13: 32 µg/mL
  MIC of antibiotic only: 250 µg/mL
  FIC antibiotic: 0.016
  MIC of antibiotic in combination: 4 µg/mL
[3]; [15]
  Interpretation: Synergy (Synergy: FICI≤0.5)
  Σ FIC: <0.14
[3]; MRSA strain 10132
  Rescue concentration of SP-BIM 13: 32 µg/mL
  MIC of antibiotic only: 250 µg/mL
  FIC antibiotic: 0.004
  MIC of antibiotic in combination: 1 µg/mL
[3]; MRSA strain 10132, antibiotic + SP-BIM 13
  Interpretation: Synergy (Synergy: FICI≤0.5)
[4]; SP-BIM 9 checkerboard
  MIC: 0.1 µg/mL
[4]; SP-BIM 13 checkerboard
  MIC: 0.1 µg/mL
[4]; [16]
  FIC of SP-BIM 9: 0.50
[4]; [17]
  FIC of SP-BIM 13: 0.5
[4]; antibiotic + SP-BIM 9
  Interpretation: Additive (Additive: FICI>0.5-1.0)
  Σ FIC: <0.70
[4]; antibiotic + SP-BIM 13
  Interpretation: Additive (Additive: FICI>0.5-1.0)
  Σ FIC: 0.7
[4]; [18]
  MIC in combination, Antibiotic: 0.05 µg/mL
[4]; [19]
  MIC in combination, Antibiotic: 0.02 µg/mL
[4]; in combination with SP-BIM 9
  FIC of antibiotic: 0.20
[4]; in combination with SP-BIM 13
  FIC of antibiotic: 0.2
[5]; SP-BIM 9 checkerboard
  MIC: 250 µg/mL
[5]; SP-BIM 13 checkerboard
  MIC: 16 µg/mL
[5]; [16]
  FIC of SP-BIM 9: 0.5
[5]; [17]
  FIC of SP-BIM 13: 1.0
[5]; antibiotic + SP-BIM 9
  Interpretation: Additive (Additive: FICI>0.5-1.0)
  Σ FIC: <0.8
[5]; antibiotic + SP-BIM 13
  Interpretation: Indifferent (Indifferent: FICI>1.0-4.0)
  Σ FIC: <2.0
[5]; [18]
  MIC in combination, Antibiotic: 63 µg/mL
[5]; [19]
  MIC in combination, Antibiotic: 16 µg/mL
[5]; in combination with SP-BIM 9
  FIC of antibiotic: 0.252
[5]; in combination with SP-BIM 13
  FIC of antibiotic: 1.0
[6]
  MIC of antibiotic, No Compound: >250 µg/mL
[7]; 24 h, read-out: MIC antibiotic only
  MIC: 16 µg/mL
[7]; [20]
  MIC in combination: Antibiotic: 1
[7]; [17]
  FIC of SP-BIM 13: 1.0
[7]; antibiotic + SP-BIM 13
  Interpretation: Indifferent (Indifferent: FICI>1.0-4.0)
  Σ FIC: <1.1
[7]; combination with SP-BIM 13
  FIC of antibiotic: 0.1
[8]; MRSA strain 1594
  Zone of clearance: 19.0 mm
  Interpretive standard (resistant/susceptible): S
[8]; MRSA strain 1621
  Zone of clearance: 21.5 mm
  Interpretive standard (resistant/susceptible): S
[8]; MRSA strain 5455
  Zone of clearance: 20.5 mm
  Interpretive standard (resistant/susceptible): S
[8]; MRSA strain 5872
  Zone of clearance: 0.0 mm
  Interpretive standard (resistant/susceptible): R
[8]; MRSA strain 7153
  Zone of clearance: 18.5 mm
  Interpretive standard (resistant/susceptible): S
[8]; MRSA strain 7172
  Zone of clearance: 17.5 mm
  Interpretive standard (resistant/susceptible): S
[8]; MRSA strain 7698
  Zone of clearance: 17.5 mm
  Interpretive standard (resistant/susceptible): S
[8]; MRSA strain 10132
  Zone of clearance: 9.0 mm
  Interpretive standard (resistant/susceptible): R
[9]; read-out: MIC antibiotic only, Escherichia coli, antibiotic alone
  MIC: 16 µg/mL
[9]; read-out: MIC antibiotic only, Escherichia coli, antibiotic alone, SP-BIM 9 checkerboard
  MIC: 250 µg/mL
[9]; [20]
  MIC in combination: Antibiotic: 16
[9]; [16]
  FIC of SP-BIM 9: 1
[9]; [17]
  FIC of SP-BIM 13: 1.0
[9]; antibiotic + SP-BIM 9
  Interpretation: Indifferent (Indifferent: FICI>1.0-4.0)
  Σ FIC: <2.0
[9]; antibiotic + SP-BIM 13
  Interpretation: Indifferent (Indifferent: FICI>1.0-4.0)
  Σ FIC: <2.0
[9]; [18]
  MIC in combination, Antibiotic: 250 µg/mL
[9]; combination with SP-BIM 13
  FIC of antibiotic: 1.0
[9]; in combination with SP-BIM 9
  FIC of antibiotic: 1
[10]; SP-BIM 9 checkerboard
  MIC: 16 µg/mL
[10]; SP-BIM 13 checkerboard
  MIC: 16 µg/mL
[10]; SP-BIM 9 concentration in combination with the labelled antibiotic
  MIC in combination, SP-BIM 9: >250 µg/mL
[10]; [16]
  FIC of SP-BIM 9: 1
[10]; [17]
  FIC of SP-BIM 13: 0.5
[10]; antibiotic + SP-BIM 9
  Interpretation: Indifferent (Indifferent: FICI>1.0-4.0)
  Σ FIC: <2.0
[10]; antibiotic + SP-BIM 13
  Interpretation: Synergy (Synergy: FICI≤0.5)
  Σ FIC: 0.5
[10]; [18]
  MIC in combination, Antibiotic: 16 µg/mL
[10]; [19]
  MIC in combination, Antibiotic: 0.05 µg/mL
[10]; in combination with SP-BIM 9
  FIC of antibiotic: 1
[10]; in combination with SP-BIM 13
  FIC of antibiotic: 0.01
[11]; [16]
  FIC of SP-BIM 9: 1.00
[11]; antibiotic + SP-BIM 9
  Interpretation: Indifference
  Σ FIC: <2.00
[11]; [18]
  MIC in combination, Antibiotic: >250 µg/mL
[11]; in combination with SP-BIM 9
  FIC of antibiotic: 1.00
[11]; Streptococcus pneumoniae, 24 h, antibiotic alone, SP-BIM 9 checkerboard, read-out: MIC antibiotic only
  MIC: > 250 µg/mL
[12]
  MIC: > 250 µg/mL
[13]
  MIC of antibiotic, No Compound: >250 µg/mL
[14]; Staphylococcus aureus, Table 4, read-out: MIC of antibiotic, No compound
  MIC: 4 µg/mL
[14]; Table 8 (series SP-BIMs 21-29)
  MIC of antibiotic, No Compound: 8 µg/mL
